# Assay results reported in patent publication US12110503B2, “Method for differentiation of ocular cells and use thereof” (FUJIFILM Cellular Dynamics, Inc., priority 2018, dated 2024).
# System: anterior neuroectoderm cells
# Assay: Retinal differentiation with removal of the BMP inhibitor (RD1 then RD2)
# Assay type: cell-based, human
# Conditions: RD1 with LDN193189 about 2 days, then RD2 without
# Procedure: In some aspects, the cells may be first differentiated in the presence of a BMP inhibitor, such as LDN1913189, for a period of time before differentiation in the absence of a BMP inhibitor. First, the anterior neuroectoderm cells are cultured in RD1 comprising a BMP pathway inhibitor, such as LDN193189, for about 1-3 days, such as 2 days. […] The second step may be for about 5-10 days, such as about 7 days, to continue differentiating the anterior neuroectoderm cells. […] VSX2 is the earliest specific marker of neural RPC within the optic vesicle and cup (Rowan, et al., 2004). VSX2^+ retinal progenitors can give rise to all cell types of the neural retina: cones, rods, ganglion cells, amacrine cells, bipolar cells, horizontal cells and Muller glia.
# The cells were then cultured in Retinal Differentiation Medium 1 (RD1) for about one to four days, particularly about two days. Briefly, the RD1 (Table 1) comprised DMEM and F12 at about a 1:1 ratio, knockout serum replacement, MEM NEAA, sodium pyruvate, N-2 supplement, B-27 supplement, and ascorbic acid. In addition, the RD1 comprised a WNT pathway inhibitor (e.g., CKI-7), a BMP pathway inhibitor (e.g., LDN193189), a TGFβ pathway inhibitor (e.g., SB431542), and a MEK inhibitor (e.g., PD325901), and IGF-1. […]
compound,measurement,value
"Cl.c1ccc2c(-c3cnn4cc(-c5ccc(N6CCNCC6)cc5)cnc34)ccnc2c1 [LDN193189, 4-(6-(4-(piperazin-1-yl)phenyl)pyrazolo[1,5-a]pyrimidin-3-yl)quinoline hydrochloride]",VSX2 expression after removal of the BMP inhibitor,increase expression of VSX2
